Patent US8618289B2 (Ambit Biosciences Corporation, priority 2008, dated 2013)
Where two headings read alike, the source gives them in different places.

Columns and labels:
[1] = system: 290 distinct kinases tested excluding mutant variants (321 in the larger panel)
Procedure: (§1) Competition binding assays used herein were developed, validated and performed as described in Fabian et al., Nature Biotechnology 2005, 23, 329-336. […] The liganded beads were blocked with excess biotin and washed with blocking buffer (SeaBlock (Pierce), 1% BSA, 0.05% Tween 20, 1 mM DTT) to remove unbound ligand and to reduce non-specific binding. […] Test compounds were prepared as 100× stocks in DMSO and rapidly diluted into the aqueous environment. DMSO was added to control assays lacking a test compound. Primary screen interactions were performed in polypropylene 384-well plates in a final volume of 34 μt, while Kd determinations were performed in polystyrene 96-well plates in a final volume of 135 pt. […] The kinase concentration in the eluates was measured by quantitative PCR. Each kinase was tested individually against each compound. Kds were determined using eleven serial threefold dilutions. A selectivity score, which is a quantitative measure of selectivity of a compound against a panel of enzymes, may be calculated for a compound by dividing the number of enzymes for which a compound meets a set criteria, (for example, a binding constant of 100 nM or less), by the total number of enzymes tested. […] (Note, for those compounds tested in a larger kinase panel, as indicated by an asterisk (*) next to the S35 score, the divisor is 321 (i.e. the larger panel contains 321 distinct kinases, excluding mutant variants.)).

[2] = system: MEK1 phosphorylation in the A375 human melanoma cell line; assay: cells; settings: A-375, read-out: pMEK IC50
A375 cells = assay: cells; settings: Homo sapiens, A-375, read-out: A375 Viability EC50
RAF kinases [3] = target: RAF kinases (Homo sapiens, UniProt P15056, V600E); assay: biochemical
Procedure: as §1

RAF kinases [4] = target: RAF kinases (Homo sapiens, UniProt P15056); settings: read-out: BRAF WT Kd; BRAF WT
Procedure: as §1

RAF kinases [5] = target: RAF kinases (Homo sapiens, UniProt P04049); settings: read-out: RAF1 Kd; RAF1
Procedure: as §1

[6] = asterisk: panel of 321 distinct kinases

RAF kinases (Homo sapiens, UniProt P04049), sequence (P04049 whole entry): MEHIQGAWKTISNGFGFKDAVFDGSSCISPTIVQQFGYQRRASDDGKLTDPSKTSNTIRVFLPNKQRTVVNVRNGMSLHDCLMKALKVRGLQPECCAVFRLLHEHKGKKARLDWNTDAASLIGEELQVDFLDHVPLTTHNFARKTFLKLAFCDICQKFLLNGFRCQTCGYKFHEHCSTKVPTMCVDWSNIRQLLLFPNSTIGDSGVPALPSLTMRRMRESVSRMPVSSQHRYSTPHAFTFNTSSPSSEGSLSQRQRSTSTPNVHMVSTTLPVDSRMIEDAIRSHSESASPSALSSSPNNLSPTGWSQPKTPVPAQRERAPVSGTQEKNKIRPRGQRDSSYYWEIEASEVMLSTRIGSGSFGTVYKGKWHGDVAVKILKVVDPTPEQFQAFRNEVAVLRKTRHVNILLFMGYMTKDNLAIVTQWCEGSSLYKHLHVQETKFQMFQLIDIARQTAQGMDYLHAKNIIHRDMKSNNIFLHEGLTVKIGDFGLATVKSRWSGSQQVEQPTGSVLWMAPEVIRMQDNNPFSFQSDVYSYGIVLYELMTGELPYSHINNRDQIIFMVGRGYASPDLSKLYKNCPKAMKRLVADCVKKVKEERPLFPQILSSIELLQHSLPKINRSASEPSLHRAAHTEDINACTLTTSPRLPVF
RAF kinases (Homo sapiens, UniProt P15056, V600E), sequence (P15056 whole entry V600E): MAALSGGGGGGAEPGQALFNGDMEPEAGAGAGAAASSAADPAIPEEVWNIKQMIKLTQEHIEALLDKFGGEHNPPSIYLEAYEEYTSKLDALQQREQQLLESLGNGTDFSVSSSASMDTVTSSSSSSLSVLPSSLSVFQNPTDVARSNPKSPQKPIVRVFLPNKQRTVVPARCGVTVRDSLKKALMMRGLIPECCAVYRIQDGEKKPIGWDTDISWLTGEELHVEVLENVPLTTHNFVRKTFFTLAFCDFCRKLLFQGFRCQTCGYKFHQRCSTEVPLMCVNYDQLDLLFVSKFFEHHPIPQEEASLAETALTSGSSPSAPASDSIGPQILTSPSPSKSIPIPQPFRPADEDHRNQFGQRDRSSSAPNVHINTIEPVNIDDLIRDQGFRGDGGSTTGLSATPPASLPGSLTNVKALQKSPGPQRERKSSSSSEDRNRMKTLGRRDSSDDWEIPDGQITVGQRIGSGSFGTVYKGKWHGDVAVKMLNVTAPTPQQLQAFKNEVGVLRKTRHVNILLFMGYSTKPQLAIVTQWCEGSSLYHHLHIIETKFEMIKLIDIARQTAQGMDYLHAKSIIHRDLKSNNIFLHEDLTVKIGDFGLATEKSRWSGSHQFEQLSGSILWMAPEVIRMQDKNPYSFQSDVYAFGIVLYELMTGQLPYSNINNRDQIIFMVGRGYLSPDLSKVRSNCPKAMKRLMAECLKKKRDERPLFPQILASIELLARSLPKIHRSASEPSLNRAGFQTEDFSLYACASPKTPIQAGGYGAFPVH
RAF kinases (Homo sapiens, UniProt P15056), sequence (P15056 whole entry): as the sequence (P15056 whole entry V600E) above, with E600V counted along it

SMILES	S35 ([1]; no asterisk: panel of 290 distinct kinases)	IC50 [2]	EC50 (A375 cells)	S35 [1, 6]	Kd (RAF kinases [3])	Kd (RAF kinases [4])	Kd (RAF kinases [5])
COc1cc(OC2CCOCC2)c2c(Sc3cccc(NC(=O)Nc4cc(C(C)(C)C)on4)c3)ncnc2c1	C (0.20 < C ≦ 0.40)	–	–	–	–	–	–
COc1cc2ncnc(Sc3cccc(NC(=O)Nc4cc(C(F)(F)F)n(-c5ccccc5)n4)c3)c2cc1OC [Ex 170, 1-[3-(6,7-dimethoxyquinazolin-4-ylthio)phenyl]-3-[1-phenyl-5-(trifluoromethyl)-1H-pyrazol-3-yl]urea]	–	250 to 500 nM	250 to 500 nM	B* (0.10 < B ≦ 0.20)	–	–	–
COc1cc2ncnc(Sc3cccc(NC(=O)Nc4cc(C(F)(F)F)n(C)n4)c3)c2cc1OC [Ex 194, 1-[3-(6,7-dimethoxyquinazolin-4-ylthio)phenyl]-3-[1-methyl-5-(trifluoromethyl)-1H-pyrazol-3-yl]urea]	–	250 to 500 nM	500 to 1000 nM	C* (0.20 < C ≦ 0.40)	–	–	–
COCCOc1cc2ncnc(Oc3cccc(NC(=O)Nc4cc(C5CCOCC5)no4)c3)c2cc1OC [Ex 216, 1-(3-(6-methoxy-7-(2-methoxyethoxy)quinazolin-4-yloxy)phenyl)-3-(3-(tetrahydro-2H-pyran-4-yl)isoxazol-5-yl)urea]	–	> 1000 nM	> 1000 nM	–	250 to 500 nM	> 1000 nM	> 1000 nM
COCCOc1cc2ncnc(Oc3cccc(NC(=O)Nc4cc(C(F)(F)F)n(-c5ccccc5)n4)c3)c2cc1OC [Ex 225, 1-{3-[6-methoxy-7-(2-methoxyethoxy)quinazolin-4-yloxy]phenyl}-3-[1-phenyl-5-(trifluoromethyl)-1H-pyrazol-3-yl]urea]	–	500 to 1000 nM	> 1000 nM	–	250 to 500 nM	> 1000 nM	> 1000 nM
COCCOc1cc2ncnc(Oc3cccc(NC(=O)Nc4cc(C(F)(F)F)nn4-c4ccc(F)cc4)c3)c2cc1OC [Ex 226, 1-[1-(4-fluorophenyl)-3-(trifluoromethyl)-1H-pyrazol-5-yl]-3-{3-[6-methoxy-7-(2-methoxyethoxy)quinazolin-4-yloxy]phenyl}urea]	–	250 to 500 nM	> 1000 nM	–	500 to 1000 nM	> 1000 nM	> 1000 nM
COCCOc1cc2ncnc(Oc3cccc(NC(=O)Nc4cc(C(F)(F)F)nn4-c4ccc(C)cc4)c3)c2cc1OC [Ex 227, 1-{3-[6-methoxy-7-(2-methoxyethoxy)quinazolin-4-yloxy]phenyl}-3-[1-p-tolyl-3-(trifluoromethyl)-1H-pyrazol-5-yl]urea]	–	250 to 500 nM	250 to 500 nM	–	500 to 1000 nM	> 1000 nM	> 1000 nM
COCCOc1cc2ncnc(Oc3cccc(NC(=O)Nc4cc(C(C)(CF)CF)nn4-c4ccccc4)c3)c2cc1OC [Ex 228, 1-[3-(1,3-difluoro-2-methylpropan-2-yl)-1-phenyl-1H-pyrazol-5-yl]-3-{3-[6-methoxy-7-(2-methoxyethoxy)quinazolin-4-yloxy]phenyl}urea]	–	< 250 nM	> 1000 nM	–	500 to 1000 nM	> 1000 nM	> 1000 nM
COCCOc1cc2ncnc(Sc3cccc(NC(=O)Nc4ccc(C(F)(F)F)c(F)c4)c3)c2cc1OC [Ex 231, 1-(3-fluoro-4-(trifluoromethyl)phenyl)-3-(3-(6-methoxy-7-(2-methoxyethoxy)quinazolin-4-ylthio)phenyl)urea]	–	> 1000 nM	> 1000 nM	–	500 to 1000 nM	> 1000 nM	> 1000 nM
COCCOc1cc2ncnc(Sc3cccc(NC(=O)Nc4ccc(C(F)(F)F)c(OC)c4)c3)c2cc1OC [Ex 233, 1-(3-methoxy-4-(trifluoromethyl)phenyl)-3-(3-(6-methoxy-7-(2-methoxyethoxy)quinazolin-4-ylthio)phenyl)urea]	–	> 1000 nM	> 1000 nM	–	500 to 1000 nM	> 1000 nM	> 1000 nM
CCOC(=O)Cn1nc(C(C)(C)C)cc1NC(=O)Nc1cccc(Sc2ncnc3cc(OCCOC)c(OC)cc23)c1 [Ex 237, ethyl 2-[3-tert-butyl-5-(3-{3-[6-methoxy-7-(2-methoxyethoxy)quinazolin-4-ylthio]phenyl}ureido)-1H-pyrazol-1-yl]acetate]	–	500 to 1000 nM	> 1000 nM	–	500 to 1000 nM	> 1000 nM	> 1000 nM
COc1cc2ncnc(Oc3cc(NC(=O)Nc4cc(C(F)(F)F)nn4-c4ccccc4)c(F)cc3F)c2cc1OC [Ex 271, 1-(5-(6,7-dimethoxyquinazolin-4-yloxy)-2,4-difluorophenyl)-3-(1-phenyl-3-(trifluoromethyl)-1H-pyrazol-5-yl)urea]	–	< 250 nM	250 to 500 nM	–	250 to 500 nM	> 1000 nM	> 1000 nM
COCCOc1cc2ncnc(Sc3cccc(NC(=O)Nc4cc(C(C)(C)C)nn4-c4ccc(C)cc4C)c3)c2cc1OC [Ex 283, 1-(3-tert-butyl-1-(2,4-dimethylphenyl)-1H-pyrazol-5-yl)-3-(3-(6-methoxy-7-(2-methoxyethoxy)quinazolin-4-ylthio)phenyl)urea]	–	< 250 nM	> 1000 nM	–	500 to 1000 nM	> 1000 nM	> 1000 nM
COc1cc2ncnc(Oc3ccc(Cl)c(NC(=O)Nc4cc(C(F)(F)F)nn4-c4ccccc4)c3)c2cc1OC [Ex 300, 1-(2-chloro-5-(6,7-dimethoxyquinazolin-4-yloxy)phenyl)-3-(1-phenyl-3-(trifluoromethyl)-1H-pyrazol-5-yl)urea]	–	250 to 500 nM	> 1000 nM	–	500 to 1000 nM	> 1000 nM	> 1000 nM
COc1cc2ncnc(Oc3cccc(NC(=O)Nc4cc(C(C)(C)CN5CCOCC5)on4)c3)c2cc1OC [Ex 302, 1-(3-(6,7-dimethoxyquinazolin-4-yloxy)phenyl)-3-(5-(2-methyl-1-morpholinopropan-2-yl)isoxazol-3-yl)urea]	–	> 1000 nM	> 1000 nM	–	250 to 500 nM	> 1000 nM	> 1000 nM
COc1cc2ncnc(Oc3cccc(NC(=O)Nc4cc(C(F)(F)C(F)(F)F)nn4-c4ccccc4)c3)c2cc1OC [Ex 304, 1-(3-(6,7-dimethoxyquinazolin-4-yloxy)phenyl)-3-(3-(perfluoroethyl)-1-phenyl-1H-pyrazol-5-yl)urea]	–	250 to 500 nM	< 250 nM	–	250 to 500 nM	> 1000 nM	> 1000 nM
COc1cc2ncnc(Oc3ccc(F)c(NC(=O)Nc4cc(C(C)(C)C)nn4-c4ccccc4)c3)c2cc1OC [Ex 368, 1-(3-tert-butyl-1-phenyl-1H-pyrazol-5-yl)-3-(5-(6,7-dimethoxyquinazolin-4-yloxy)-2-fluorophenyl)urea]	–	< 250 nM	–	–	500 to 1000 nM	> 1000 nM	> 1000 nM
COc1cc2ncnc(Sc3cccc(NC(=O)Nc4cc(C(C)(C)C)nn4-c4ccccc4F)c3)c2cc1OC [Ex 371, 1-(3-tert-butyl-1-(2-fluorophenyl)-1H-pyrazol-5-yl)-3-(3-(6,7-dimethoxyquinazolin-4-ylthio)phenyl)urea]	–	< 250 nM	–	–	250 to 500 nM	> 1000 nM	> 1000 nM
COc1cc2ncnc(Oc3cccc(NC(=O)Nc4cc(C(C)(C)C)nn4-c4ccc(C(F)(F)F)cc4)c3)c2cc1OC [Ex 373, 1-(3-tert-butyl-1-(4-(trifluoromethyl)phenyl)-1H-pyrazol-5-yl)-3-(3-(6,7-dimethoxyquinazolin-4-yloxy)phenyl)urea]	–	< 250 nM	–	–	500 to 1000 nM	> 1000 nM	> 1000 nM
COc1cc2ncnc(Sc3cccc(NC(=O)Nc4cc(C(C)(C)C)nn4-c4ccccc4C(F)(F)F)c3)c2cc1OC [Ex 375, 1-(3-tert-butyl-1-(2-(trifluoromethyl)phenyl)-1H-pyrazol-5-yl)-3-(3-(6,7-dimethoxyquinazolin-4-ylthio)phenyl)urea]	–	< 250 nM	–	–	500 to 1000 nM	> 1000 nM	> 1000 nM
COc1cc2ncnc(Oc3cccc(NC(=O)Nc4cc(C(C)(C)C)nn4-c4ccccc4C(F)(F)F)c3)c2cc1OC [Ex 376, 1-(3-tert-butyl-1-(2-(trifluoromethyl)phenyl)-1H-pyrazol-5-yl)-3-(3-(6,7-dimethoxyquinazolin-4-yloxy)phenyl)urea]	–	< 250 nM	–	–	500 to 1000 nM	> 1000 nM	> 1000 nM
COc1cc2ncnc(Oc3cccc(NC(=O)Nc4cc(C(C)(C)C)nn4-c4cccc(C(F)(F)F)c4)c3)c2cc1OC [Ex 379, 1-(3-tert-butyl-1-(3-(trifluoromethyl)phenyl)-1H-pyrazol-5-yl)-3-(3-(6,7-dimethoxyquinazolin-4-yloxy)phenyl)urea]	–	< 250 nM	–	–	250 to 500 nM	> 1000 nM	> 1000 nM
COc1cc2ncnc(Sc3cccc(NC(=O)Nc4cc(C(C)(C)C)nn4-c4cccc(C(F)(F)F)c4)c3)c2cc1OC [Ex 380, 1-(3-tert-butyl-1-(3-(trifluoromethyl)phenyl)-1H-pyrazol-5-yl)-3-(3-(6,7-dimethoxyquinazolin-4-ylthio)phenyl) urea]	–	< 250 nM	–	–	250 to 500 nM	> 1000 nM	> 1000 nM
COc1cc2ncnc(Sc3cccc(NC(=O)Nc4cc(C5(C(F)(F)F)CC5)nn4-c4ccccc4)c3)c2cc1OC [Ex 383, 1-(3-(6,7-dimethoxyquinazolin-4-ylthio)phenyl)-3-(1-phenyl-3-(1-(trifluoromethyl)cyclopropyl)-1H-pyrazol-5-yl)urea]	–	< 250 nM	–	–	250 to 500 nM	> 1000 nM	> 1000 nM
